Active and inactive are the calls of the source. How the calls were made is not given here; tested in parental BL2 cells. Numbered stars: 1 amine (or outer) side, 2 acyl side, 3 side chain; on linkers, the order of the positions; unused ones are H or OH. Bridge positions count the residues as written; N and C are the ends. Square brackets hold non-standard residues; d marks the D form. Peptide text beside a SMILES is read from it. I, II: the chains in the order shown. Actinocin(9to1) = Cc1c2oc3c(C)ccc(C(=O)[*:1])c3nc-2c(C(=O)[*:2])c(N)c1=O; NMeV = CN[CH](C(=O)O)C(C)C; Sar = CNCC(=O)O

In this assay the test system is cytotoxicity, CellTiter-Glo ATP luminescence. As to the kind of experiment: cell cytotoxicity, dose response, cytotoxicity control, CellTiter-Glo (AID 1259333). (In general: Cellular ATP, detected with luciferase, serves as a proxy for viable cell number.)
Regarding `CCN(CC)c1ccc(C(NC(=O)C(C)C)c2ccc3cccnc3c2O)cc1` (configuration not stated), the AC50 is 9.15 µM. As to `CC(C)[C@H](N)C(=O)N[C@H]1CCC2C3CC=C4C[C@@H](O)CC[C@]4(C)C3CC[C@@]21C` (some centres not stated), the AC50 is 6.89 µM. Regarding `N#C[C@@H]1[C@H](c2ccc(C#CC3CCCC3)cc2)[C@H](CO)N1C(=O)Cc1ccccn1`, the AC50 is > 20 µM (inactive).

As for `c1ccc2sc(-c3ccc4c(c3)OCO4)nc2c1`, the half-maximal activity concentration (AC50) was 5.19 µM. Consider `O=C1c2c(O)ccc(O)c2C(=O)c2c(NCCNCCO)ccc(NCCNCCO)c21`, for which the half-maximal activity concentration (AC50) was 5.78 µM. As to `Cc1cnc(NC(=O)c2ccccn2)s1`, the AC50 was 7.7 µM. As to `COC(=O)c1ccccc1-c1c2ccc(=N)cc-2oc2cc(N)ccc12`, the AC50 is > 20 µM (inactive). Turning to `CC(C)=CCc1c2c(c3occ(-c4ccc(O)c(O)c4)c(=O)c3c1O)C=CC(C)(C)O2`, the half-maximal activity concentration (AC50) was 5.55 µM. As to `COc1ccc(CN2CC3(CN(C(=O)Cc4ccccc4)C3)c3c([nH]c4cc(OC)ccc34)[C@@H]2CO)cc1`, the AC50 was 9.43 µM. For the compound `CCCNC(=O)N1[C@H](C#N)[C@@H](c2ccc(-c3cccc(OC)c3)cc2)[C@H]1CO`, the AC50 is > 20 µM (inactive). With `[O-]C(=C(C(=S)Nc1cccc2ccccc12)[n+]1ccccc1)c1ccc2c(c1)OCCO2`, the AC50 was > 7 µM (inactive). For `COc1ccc(C(=O)O/N=C2\C(=O)N(C)c3ccccc32)cc1`, the AC50 was 2 µM. The figure for `COc1cc(C(C)C)c2c(c1)S(=O)(=O)N(COc1cc(=O)n3cccc(OCCN4CCCCC4)c3n1)C2=O` is 10.5 µM; for `O=S(=O)(c1cccc2cnccc12)N1CCNCC1` it is 7.09 µM. Regarding `Oc1c(Cl)cc(Cl)c(Cl)c1Cc1c(O)c(Cl)cc(Cl)c1Cl`, the concentration at half-maximal activity (AC50) was 10.2 µM. Regarding `OCC1OC(n2cnc3cc(Cl)c(Cl)cc32)C(O)C1O` (configuration not stated), the AC50 was > 20 µM (inactive). In the case of `COc1ccc(CN(CCC(c2ccccc2)c2ccc(OC(C)C)cc2)C(=O)CCl)cc1OC` (configuration not stated), the concentration at half-maximal activity (AC50) is 2.54 µM. Take `OC(c1cc(-c2cccc(Cl)c2)nc2ccccc12)C1CCCCN1` (configuration not stated): the AC50 is 2.86 µM.

Take `C[n+]1c2n(c3ccccc31)N=C(c1ccc(-c3ccccc3)cc1)CS2`: the AC50 is 6.3 µM. As for `OC1CC2CCC(C1)N2CCCN1c2ccccc2Sc2ccc(Cl)cc21` (configuration not stated), the AC50 was 10.6 µM. `OC(CCN1CCCCC1)c1ccc(-c2ccccc2)cc1` (configuration not stated): the AC50 was > 20 µM (inactive).

`O=C(C1CCC1)N1CCc2cc(S(=O)(=O)N3CCCCC3)ccc21`: the AC50 was 2.65 µM. In the case of `CC(=O)OC1C(=O)OCC23CCC4(C)OC4C2OC2CC(OC(=O)C=CC=CC(=O)OCCC1C)C3(C)C21CO1` (configuration not stated), the AC50 was > 7 µM (inactive). With `COc1ccc2c3c(n(C)c2c1)[C@H](CO)N(C(=O)Nc1ccc(F)cc1)CC31CCN(C(=O)c2ccc3c(c2)OCO3)CC1`, the AC50 is > 20 µM (inactive). As for `CC(C)c1c(O)ccc2c1CCC1C(C)(C)CCC[C@]21C` (some centres not stated), the concentration at half-maximal activity (AC50) is 6.74 µM.

Consider `Cc1c2oc3c(C)ccc(C(=O)OC(C)C4NC(=O)C(C(C)C)N(C)C(=O)CN(C)C(=O)C5CCCN5C(=O)C(C(C)C)NC4=O)c3nc-2c(C(=O)OC(C)C2NC(=O)C(C(C)C)N(C)C(=O)CN(C)C(=O)C3CCCN3C(=O)C(C(C)C)NC2=O)c(N)c1=O` (configuration not stated) (I: cyclo([Sar][NMeV]TVP) / II: cyclo([Sar][NMeV]TVP); linker I:3-II:3 via Actinocin(9to1); configuration not given here), for which the AC50 was > 20 µM (inactive).

On to `N#Cc1c(Br)n(C2OC(CO)C(O)C2O)c2ncnc(N)c12` (configuration not stated), for which the half-maximal activity concentration (AC50) is 4.91 µM. Consider `CN(C)c1ccc(C(=C2C=CC(=[N+](C)C)C=C2)c2ccc(N(C)C)cc2)cc1`, for which the AC50 was 0.492 µM.

In the case of `COC(=O)C12OCC34C(CC5C(C)=C(O)C(=O)CC5(C)C3C(O)C1O)OC(=O)C(OC(=O)C=C(C)C)C24` (configuration not stated), the concentration at half-maximal activity (AC50) was 3.11 µM.

With `Cc1ccc(CN2CC(C(=O)Nc3ncc(C)s3)CC2=O)cc1` (configuration not stated), the AC50 is > 20 µM (inactive). The figure for `C[C@@H]1CCCCO[C@@H](CN(C)S(=O)(=O)c2ccc(Cl)cc2)[C@H](C)CN([C@H](C)CO)C(=O)c2cc(NC(=O)Nc3ccc(C(F)(F)F)cc3)ccc2O1` is 6.61 µM; for `CCCC(=O)NC1=C(Cl)C(=O)c2ccccc2C1=O` it is 1.12 µM.

Turning to `CC(C)CCCCCCCCCCCCC(=O)NCC(=O)NC1C(O)C(O)C(Nc2ncnc3nc[nH]c23)OC1C(O)CO` (configuration not stated), the half-maximal activity concentration (AC50) is 9.02 µM. For the compound `C=CC[n+]1c(/C=C2\C=Cc3cc(C)ccc3N2CC)ccc2ccccc21`, the concentration at half-maximal activity (AC50) was 7.46 µM.

For `C[C@@H]1CCCCO[C@H](CN(C)CC2CCCCC2)[C@H](C)CN([C@@H](C)CO)C(=O)c2cc(NC(=O)Nc3ccc(C(F)(F)F)cc3)ccc2O1`, the half-maximal activity concentration (AC50) is 4.91 µM.

As to `CC1CC(C)C(=NNC(N)=O)C(C(O)CC2CCC(=O)NC2=O)C1` (configuration not stated), the AC50 is > 20 µM (inactive). Consider `O=C1/C(=C/c2ccccc2)C[C@@]2(O)C3Cc4ccc(O)c5c4[C@@]2(CCN3CC2CC2)[C@H]1O5`, for which the concentration at half-maximal activity (AC50) is 2.6 µM.

In the case of `Clc1ccc(C(Cn2ccnc2)OCc2ccsc2Cl)c(Cl)c1` (configuration not stated), the AC50 was > 20 µM (inactive). Consider `COc1ccc(-c2cc(-c3ccccc3)c(C#N)c(S(C)=O)n2)cc1` (configuration not stated), for which the AC50 was 3 µM.

For the compound `COc1ccc(S(=O)(=O)Nc2ccc3c(c2)C(=O)N([C@H](C)CO)C[C@@H](C)[C@H](CN(C)Cc2ccc(C(F)(F)F)cc2)OCCCC[C@@H](C)O3)cc1`, the AC50 is 8.94 µM. Turning to `COc1cccc(NC(=O)N2CC(=O)N3[C@H](CO)[C@@H](c4ccc(C#CCC5CCCC5)cc4)[C@H]3C2)c1`, the AC50 is 4.13 µM. The figure for `Cn1cnc([N+](=O)[O-])c1S(=O)(=O)Oc1cccc2ccccc12` is 1.91 µM; for `O=[N+]([O-])c1ccc(N2CCOCC2)c2c1no[n+]2[O-]` it is 2.85 µM; for `C[C@H]1CN([C@@H](C)CO)C(=O)c2ccccc2-c2ccccc2CO[C@@H]1CN(C)Cc1ccccc1C(F)(F)F` it is 10.5 µM. On to `CC1CC(C)C(=O)C(C(O)CC2CC(=O)NC(=O)C2)C1` (configuration not stated), for which the AC50 was > 20 µM (inactive). The figure for `CC(=O)OCC12CC(OC(=O)CC(C)C)C(C)=CC1OC1C(O)C(OC(C)=O)C2(C)C12CO2` (configuration not stated) is 3.67 µM; for `COc1cc2cc(C(=O)N3CC(COS(C)(=O)=O)c4ccc(O)cc43)[nH]c2c(OC)c1OC` (configuration not stated) it is 0.276 µM; for `CCS(=O)(=O)N1Cc2ccccc2CC1C(=O)Nc1nc2ccccc2s1` (configuration not stated) it is 5.74 µM. Regarding `O=C1Cc2c([nH]c3ccc(Br)cc23)-c2ccccc2N1`, the half-maximal activity concentration (AC50) is 10.2 µM. Regarding `C[C@H](CO)N1C[C@H](C)[C@H](CN(C)C(=O)Nc2cccc(Cl)c2Cl)OCc2ccccc2-c2c(n(C)c3ccccc23)C1=O`, the AC50 was 2.51 µM. As to `COc1cccc(C#Cc2ccc([C@H]3[C@@H](C#N)N(C(=O)c4ccccn4)[C@@H]3CO)cc2)c1`, the AC50 is 9.74 µM. The figure for `N#C[C@@H]1[C@H](c2ccc(C#CC3CCCCC3)cc2)[C@@H](CO)N1S(=O)(=O)c1ccccc1` is 7.22 µM; for `Cn1cc(C2=C(c3cn(CCCSC(=N)N)c4ccccc34)C(=O)NC2=O)c2ccccc21` it is 0.388 µM; for `CC(C)(C)c1cc(C=C(C#N)C#N)cc(C(C)(C)C)c1O` it is > 20 µM (inactive). The figure for `Cc1ccc(S(=O)(=O)N2CCCC2CNC(=O)c2ccc3c(c2)OCO3)cc1` (configuration not stated) is 4.95 µM.

Take `Cc1noc(C)c1S(=O)(=O)Nc1ccc2c(c1)C(=O)N([C@H](C)CO)C[C@H](C)[C@@H](CN(C)C(=O)Nc1cccc3ccccc13)OCCCC[C@H](C)O2`: the AC50 is > 20 µM (inactive). With `NCCOc1ccc(C23CC4CC(CC(C4)C2)C3)cc1`, the concentration at half-maximal activity (AC50) was 4.9 µM.

On to `CCCNC(=O)N1[C@H](C#N)[C@H](c2ccc(C3=CCCCC3)cc2)[C@@H]1CO`, for which the AC50 was > 20 µM (inactive). Regarding `CC1OC(CC(=O)O)CC2=C1C(=O)c1c(O)cccc1C2=O` (configuration not stated), the half-maximal activity concentration (AC50) is 1.06 µM. Then `CC[C@@]1(O)C(=O)OCc2c1cc1n(c2=O)Cc2cc3ccccc3nc2-1`, with 9.41 µM; and `CCN1/C(=C/c2sc(-c3ccccc3C)c[n+]2C)Sc2ccccc21`, with 9.06 µM. The figure for `C[C@@H]1C[C@@H]([C@H](O)CC2CC(=O)NC(=O)C2)C(=O)[C@@H](C)C1` is > 20 µM (inactive). As for `CC(C)C#Cc1ccc([C@H]2[C@@H](CO)N(C(=O)c3ccccn3)[C@H]2C#N)cc1`, the AC50 was > 20 µM (inactive). Regarding `CC(C)OC(=O)c1cn(Cc2c(F)cccc2F)c2sc(-c3ccc(NC(=O)C(C)C)cc3)c(CN(C)Cc3ccccc3)c2c1=O`, the AC50 is > 20 µM (inactive). Consider `COc1c(-c2coc3cc4c(cc3c2=O)CC(O)C(C)(C)O4)ccc2c1C=CC(C)(C)O2` (configuration not stated), for which the AC50 is > 20 µM (inactive). Turning to `O=C(NCCC(c1ccccc1)c1ccco1)c1cccs1` (configuration not stated), the AC50 is > 20 µM (inactive). Turning to `O=C1NC2c3c(Cl)sc(Cl)c3C(=O)C2O1` (configuration not stated), the half-maximal activity concentration (AC50) was 3.72 µM. As to `O=C(c1ccc(-c2ccc([N+](=O)[O-])cc2)o1)N1CCCC(C(F)(F)F)C1` (configuration not stated), the AC50 is > 20 µM (inactive).

Take `C[C@H](CO)N1C[C@H](C)[C@H](CN(C)S(=O)(=O)c2ccc([N+](=O)[O-])cc2)OCc2ccccc2-c2c(n(C)c3ccccc23)C1=O`: the AC50 was > 20 µM (inactive). For `c1cc(-c2cnn3cc(-c4ccc(OCCN5CCCCC5)cc4)cnc23)ccn1`, the half-maximal activity concentration (AC50) is 1.44 µM.

With `COc1ccc(/C=C/C(=O)Nc2ccccc2C(=O)O)cc1OC`, the AC50 was > 20 µM (inactive). The figure for `CO[C@H]1CC(O[C@@H]2/C(C)=C/C[C@@H]3C[C@@H](C[C@]4(CC[C@H](C)[C@@H](C5CCCCC5)O4)O3)OC(=O)[C@@H]3C=C(C)/C(=N/O)[C@H]4OC/C(=C\C=C\[C@@H]2C)[C@]43O)O[C@@H](C)C1O` (some centres not stated) is 9.15 µM; for `CC[N+]1(C)CCC(O)(c2ccc(OC)cc2)C(C(=O)c2ccc(OC)cc2)C1` (configuration not stated) it is 5.1 µM. Then `COc1ccc2c3c(n(C)c2c1)[C@@H](CO)N(C(=O)Nc1ccc(F)cc1)CC31CN(Cc2ccccc2F)C1`, with > 20 µM (inactive). Turning to `COc1ccc2c3c([nH]c2c1)[C@H](CO)N(C(=O)Nc1ccc(F)cc1)CC31CCN(C(=O)c2ccccc2F)CC1`, the AC50 is 8.44 µM.

Turning to `COc1ccc(NC(=O)O/N=C/c2c(C)nn(C(C)(C)C)c2C)cc1`, the AC50 was 7.85 µM. Regarding `COCC(=O)N1[C@H](C#N)[C@H](c2ccc(C#Cc3ccccc3F)cc2)[C@H]1CO`, the concentration at half-maximal activity (AC50) is 11.5 µM.

As usually defined, the AC50 is the concentration at which the activity in the assay is half-maximal.

These data come from PubChem BioAssay AID1259333 (Broad Institute, 2017).
